Structures can show the parent of a compound that is named as a salt.
target: human KV7.2/KV7.3 (Homo sapiens (Human), UniProt O43525+O43526); assay: Potassium flux assay (IPG-2 AM dye); type: cell-based; conditions: TREX HEK 293 or HEK 293 cells expressing human KV7.2/KV7.3; arithmetic mean values
Description: This potassium flux assay employs the cell-permeable, potassium-sensitive dye, IPG-2 AM, to quantify potassium ion flux through potassium channels.
In general, TREX HEK 293 or HEK 293 cells were stably transfected with either an inducible or non-inducible expression vector containing the full-length cDNA coding for the desired human KV7.2/KV7.3 or in combination with another full-length cDNA for a second desired human KV7 potassium channel. Potassium channel-expressing cell lines were induced with tetracycline (1 μg/mL), if required, and plated on 384-well poly-D-lysine (PDL)-coated plates in culture media (DMEM, containing 10% FBS and 1% L-glutamine). After overnight incubation, culture media was removed and cells were loaded with 5 μM IPG-2 AM dye for 1 hour in Assay buffer (140 mM NaCl, 20 mM RbCl, 2 mM CaCl2, 1 mM MgCl2, 10 mM HEPES (4-(2-hydroxyethyl)-1-piperazineethanesulfonic acid buffer), 10 mM glucose, adjusted with Tris to pH 7.4). Excess dye was removed, and cells incubated at room temperature for 20 minutes with or without test compound. A Hamamatsu FDSS μCell was used to perform a 1:1 addition of K challenge buffer (150 mM NaCl, 10 mM HEPES, 2 mM CaCl2, 10 mM KCl, 1 mM MgCl2, 10 mM glucose, adjusted with Tris to pH 7.4 for human KV7.2/KV7.3, and simultaneously read plates at excitation wavelength of 530 nm and emission wavelength of 558 nm. Non-potassium channel-mediated potassium influx was determined in the presence of DMSO, and maximal influx was determined in the presence of a known KV7.x channel modulator. For each test compound, a concentration response curve was generated with 16 concentrations points, 2-fold serial dilution starting at 30 μM and an EC50 value was determined.

SMILES	EC50 [µM]
N#CC1(COc2ccc3c(Nc4ccc(Cl)nc4)nccc3c2)CCOCC1 [Example 50, 4-(((1-((6-chloropyridin-3-yl)amino)isoquinolin-6-yl)oxy)methyl)tetrahydro-2H-pyran-4-carbonitrile]	< 1
Clc1ccc(Nc2nccc3cc(OCc4ccncn4)ccc23)cn1 [Example 51, N-(6-chloropyridin-3-yl)-6-(pyrimidin-4-ylmethoxy)isoquinolin-1-amine]	1 to 10
FC1(COc2ccc3c(Nc4ccc(Cl)nc4)nccc3c2)COC1 [Example 52, N-(6-chloropyridin-3-yl)-6-((3-fluorooxetan-3-yl)methoxy)isoquinolin-1-amine]	< 1
CN1C(=O)CCC1COc1ccc2c(Nc3ccc(Cl)nc3)nccc2c1 (centres unmarked) [Example 53, 5-(((1-((6-chloropyridin-3-yl)amino)isoquinolin-6-yl)oxy)methyl)-1-methylpyrrolidin-2-one]	1 to 10
COc1cc(Nc2nccc3cc(OCc4cnn(C)c4)ccc23)cnc1Cl [Example 54, N-(6-chloro-5-methoxypyridin-3-yl)-6-((1-methyl-1H-pyrazol-4-yl)methoxy)isoquinolin-1-amine]	< 1
COc1cc(Nc2nccc3cc(OCc4cnn(C)c4)ccc23)cnc1C [Example 55, N-(5-methoxy-6-methylpyridin-3-yl)-6-((1-methyl-1H-pyrazol-4-yl)methoxy)isoquinolin-1-amine formate]	< 1
FC1(COc2ccc3c(Nc4cnc(Cl)nc4)nccc3c2)COC1 [Example 56, N-(2-chloropyrimidin-5-yl)-6-((3-fluorooxetan-3-yl)methoxy)isoquinolin-1-amine]	< 1
Cc1ncc(Nc2nccc3cc(OCC4(F)COC4)ccc23)cn1 [Example 57, 6-((3-fluorooxetan-3-yl)methoxy)-N-(2-methylpyrimidin-5-yl)isoquinolin-1-amine]	1 to 10
Cc1ncc(Nc2nccc3cc(OCC4(F)CNC4)ccc23)cn1 [Example 58, 6-((3-fluoroazetidin-3-yl)methoxy)-N-(2-methylpyrimidin-5-yl)isoquinolin-1-amine]	≥ 30
FC1(COc2ccc3c(Nc4ccc(Cl)nc4)nccc3c2)CNC1 [Example 59, N-(6-chloropyridin-3-yl)-6-((3-fluoroazetidin-3-yl)methoxy)isoquinolin-1-amine hydrochloride]	10 to 30
N#CC1(Oc2ccc3c(Nc4cnc(Cl)nc4)nccc3c2)CC1 [Example 60, 1-((1-((2-chloropyrimidin-5-yl)amino)isoquinolin-6-yl)oxy)cyclopropane-1-carbonitrile]	1 to 10
NC(=O)C1(Oc2ccc3c(Nc4cnc(Cl)nc4)nccc3c2)CC1 [Example 61, 1-((1-((2-chloropyrimidin-5-yl)amino)isoquinolin-6-yl)oxy)cyclopropane-1-carboxamide]	1 to 10
Cn1nc(COc2ccc3c(Nc4ccc(Cl)nc4)nccc3c2)cc1C#N [Example 62, 3-(((1-((6-chloropyridin-3-yl)amino)isoquinolin-6-yl)oxy)methyl)-1-methyl-1H-pyrazole-5-carbonitrile]	1 to 10
Cc1nnc(COc2ccc3c(Nc4ccc(Cl)nc4)nccc3c2)o1 [Example 63, N-(6-chloropyridin-3-yl)-6-((5-methyl-1,3,4-oxadiazol-2-yl)methoxy)isoquinolin-1-amine]	1 to 10
N#C[C@H]1C[C@](F)(COc2ccc3c(Nc4cnc(Cl)nc4)nccc3c2)C1 [Example 64, (1s,3s)-3-(((1-((2-chloropyrimidin-5-yl)amino)isoquinolin-6-yl)oxy)methyl)-3-fluorocyclobutane-1-carbonitrile]	< 1
Cn1cncc1COc1ccc2c(Nc3ccc(Cl)nc3)nccc2c1 [Example 65, N-(6-chloropyridin-3-yl)-6-((1-methyl-1H-imidazol-5-yl)methoxy)isoquinolin-1-amine]	< 1
FC(F)COc1ccc2c(Nc3cnc(Cl)nc3)nccc2c1 [Example 66, N-(2-chloropyrimidin-5-yl)-6-(2,2-difluoroethoxy)isoquinolin-1-amine]	< 1
COc1ccc(Nc2nccc3cc(OCC4(C)COC4)ccc23)cn1 [Example 67, N-(6-methoxypyridin-3-yl)-6-((3-methyloxetan-3-yl)methoxy)isoquinolin-1-amine]	≥ 30
FC1(COc2ccc3c(Nc4cnc(Cl)nc4)nccc3c2)CC1 [Example 68, N-(2-chloropyrimidin-5-yl)-6-((1-fluorocyclopropyl)methoxy)isoquinolin-1-amine]	< 1

SMILES	EC50 [µM]
Oc1ccc2c(Nc3ccc(Cl)nc3)nccc2c1 [Example 69, 1-((6-chloropyridin-3-yl)amino)isoquinolin-6-ol]	10 to 30
Clc1ccc(Nc2nccc3cc(OCCN4CC5(CCO5)C4)ccc23)cn1 [Example 70, 6-(2-(1-oxa-6-azaspiro[3.3]heptan-6-yl)ethoxy)-N-(6-chloropyridin-3-yl)isoquinolin-1-amine]	10 to 30
Clc1ccc(Nc2nccc3cc(OCCN4CC5(CCC5)C4)ccc23)cn1 [Example 71, 6-(2-(2-azaspiro[3.3]heptan-2-yl)ethoxy)-N-(6-chloropyridin-3-yl)isoquinolin-1-amine]	10 to 30
COC1CN(CCOc2ccc3c(Nc4ccc(Cl)nc4)nccc3c2)C1 [Example 72, N-(6-chloropyridin-3-yl)-6-(2-(3-methoxyazetidin-1-yl)ethoxy)isoquinolin-1-amine]	10 to 30
Clc1ccc(Nc2nccc3cc(OCCN4CC5(COC5)C4)ccc23)cn1 [Example 73, 6-(2-(2-oxa-6-azaspiro[3.3]heptan-6-yl)ethoxy)-N-(6-chloropyridin-3-yl)isoquinolin-1-amine]	≥ 30
Clc1ccc(Nc2nccc3cc(OCCn4ccnc4)ccc23)cn1 [Example 74, 6-(2-(1H-imidazol-1-yl)ethoxy)-N-(6-chloropyridin-3-yl)isoquinolin-1-amine]	≥ 30
O=c1cc[nH]n1CCOc1ccc2c(Nc3ccc(Cl)nc3)nccc2c1 [Example 75, 2-(2-((1-((6-chloropyridin-3-yl)amino)isoquinolin-6-yl)oxy)ethyl)-1,2-dihydro-3H-pyrazol-3-one]	1 to 10
Clc1ccc(Nc2nccc3cc(OCc4ccccc4)ccc23)cn1 [Example 76, 6-(benzyloxy)-N-(6-chloropyridin-3-yl)isoquinolin-1-amine]	≥ 30
N#CC1(COc2ccc3c(Nc4ccc(Cl)nc4)nccc3c2)CCC1 [Example 77, 1-(((1-((6-chloropyridin-3-yl)amino)isoquinolin-6-yl)oxy)methyl)cyclobutane-1-carbonitrile]	< 1
CC(C)(C#N)COc1ccc2c(Nc3ccc(Cl)nc3)nccc2c1 [Example 78, 3-((1-((6-chloropyridin-3-yl)amino)isoquinolin-6-yl)oxy)-2,2-dimethylpropanenitrile]	1 to 10
N#CC1(COc2ccc3c(Nc4ccc(Cl)nc4)nccc3c2)CC1 [Example 80, 1-(((1-((6-chloropyridin-3-yl)amino)isoquinolin-6-yl)oxy)methyl)cyclopropane-1-carbonitrile]	< 1
Clc1ccc(Nc2nccc3cc(OCC4CC5(COC5)C4)ccc23)cn1 [Example 81, 6-((2-oxaspiro[3.3]heptan-6-yl)methoxy)-N-(6-chloropyridin-3-yl)isoquinolin-1-amine]	1 to 10
Clc1ccc(Nc2nccc3cc(OCn4cccn4)ccc23)cn1 [Example 82, 6-((1H-pyrazol-1-yl)methoxy)-N-(6-chloropyridin-3-yl)isoquinolin-1-amine]	1 to 10
FC1(F)CCCC(Oc2ccc3c(Nc4ccc(Cl)nc4)nccc3c2)C1 (centres unmarked) [Example 83, N-(6-chloropyridin-3-yl)-6-((3,3-difluorocyclohexyl)oxy)isoquinolin-1-amine]	1 to 10
Clc1ccc(Nc2nccc3cc(OCc4cnn5c4OCCC5)ccc23)cn1 [Example 84, N-(6-chloropyridin-3-yl)-6-((6,7-dihydro-5H-pyrazolo[5,1-b][1,3]oxazin-3-yl)methoxy)isoquinolin-1-amine]	10 to 30
N#CC1(COc2ccc3c(Nc4ccc(Cl)nc4)nccc3c2)COC1 [Example 85, 3-(((1-((6-chloropyridin-3-yl)amino)isoquinolin-6-yl)oxy)methyl)oxetane-3-carbonitrile]	< 1
FC1(F)COCC1Oc1ccc2c(Nc3ccc(Cl)nc3)nccc2c1 (centres unmarked) [Example 86, N-(6-chloropyridin-3-yl)-6-((4,4-difluorotetrahydrofuran-3-yl)oxy)isoquinolin-1-amine 2,2,2-trifluoroacetate]	1 to 10
Cn1cnnc1COc1ccc2c(Nc3ccc(Cl)nc3)nccc2c1 [Example 87, N-(6-chloropyridin-3-yl)-6-((4-methyl-4H-1,2,4-triazol-3-yl)methoxy)isoquinolin-1-amine]	1 to 10
Cc1ncc(Nc2nccc3cc(OCC4(C#N)CC4)ccc23)cn1 [Example 88, 1-(((1-((2-methylpyrimidin-5-yl)amino)isoquinolin-6-yl)oxy)methyl)cyclopropane-1-carbonitrile]	1 to 10
